Data reported in paper PMC4585333, “Novel Regulator of Acylated Ghrelin, CF801, Reduces Weight Gain, Rebound Feeding after a Fast, and Adiposity in Mice” (Frontiers in Endocrinology, 2015).
“Also recorded” adds a separate entry of the source.

What was measured:
Format in all cases: in vivo, male C57BL/6J mice
Body weight gain = conditions: 13 days
Method: (§1) In general, male C57BL/6J mice (The Jackson Laboratory, Bar Harbor, ME, USA) weighing 20–25 g were used as experimental subjects. Throughout the duration of the studies, mice were housed under standard laboratory conditions and received ad libitum access to standard laboratory mouse chow and tap water. Lights in the facility were set to go on and off at 12 h intervals with the lights going on at 7:00 a.m. In some experiments, mice also had ad libitum access to a high-fat diet containing 60% caloric content from fat (TD 06414; Harlan Teklad, Indianapolis, IN, USA) in addition to regular chow to measure dietary preferences. All procedures were approved by the Carleton University Animal Care Committee and followed the guidelines of the Canadian Council on Animal Care.
A second cohort of mice (n = 30) was acclimated to the laboratory conditions for 1 week prior to the onset of the experiment. Mice were housed individually and their body weight and food intake was recorded daily for a baseline period of 10 days. Given that ghrelin augments the intake of preferred diets ([28]), all mice received ad libitum access to a high-fat diet (60% of calories coming from fat), in addition to regular chow, to determine if CF801 altered dietary preference. Both chow and high-fat diet pellets were provided daily to mice ad libitum in pre-weighed amounts. Mice were then assigned to four different groups: non-injected control (NIC; n = 7), vehicle (0.9% saline) (VEH; n = 7), low-dose CF801 (11 μmol⋅kg^−1 – LD; n = 8) and high-dose CF801 (22 μmol⋅kg^−1 – HD; n = 8). Each day at 09:00 hours, mice were weighed and their food intake (both chow and high-fat diet) was recorded. After this, mice received an intraperitoneal injection of either CF801 or saline (except for the non-injected controls). Following the 13-day treatment period, half the animals in each group were sacrificed, while the remaining mice were allowed to recover from treatment. […] Each carcass was analyzed separately and measurements of total fat mass, total lean mass, and total water weight were obtained for each mouse.

[1] = Food intake and dietary preference (chow and high-fat diet)
Method: as §1
(§2) A second cohort of mice (n = 30) was acclimated to the laboratory conditions for 1 week prior to the onset of the experiment. Mice were housed individually and their body weight and food intake was recorded daily for a baseline period of 10 days. Given that ghrelin augments the intake of preferred diets ([28]), all mice received ad libitum access to a high-fat diet (60% of calories coming from fat), in addition to regular chow, to determine if CF801 altered dietary preference. Both chow and high-fat diet pellets were provided daily to mice ad libitum in pre-weighed amounts. Mice were then assigned to four different groups: non-injected control (NIC; n = 7), vehicle (0.9% saline) (VEH; n = 7), low-dose CF801 (11 μmol⋅kg^−1 – LD; n = 8) and high-dose CF801 (22 μmol⋅kg^−1 – HD; n = 8). Each day at 09:00 hours, mice were weighed and their food intake (both chow and high-fat diet) was recorded. After this, mice received an intraperitoneal injection of either CF801 or saline (except for the non-injected controls). Following the 13-day treatment period, half the animals in each group were sacrificed, while the remaining mice were allowed to recover from treatment. […] At this point, the remaining mice were sacrificed. Carcasses from all animals were frozen and stored at −80°C until they were scanned for body composition analyses. Immediately prior to analysis, all carcasses were thawed to room temperature and weighed in order to obtain measures relative to total carcass mass. EchoMRI carcass analyses were performed at Health Canada, Nutrition Research Division facilities using the EchoMRI-1100 (System ID EF-020) scanner. Each carcass was analyzed separately and measurements of total fat mass, total lean mass, and total water weight were obtained for each mouse.

Metabolic efficiency = conditions: treatment period
Method: as §2
Metabolic efficiency, defined as the amount of weight gained per calorie of energy consumed during a given time period, was calculated for each mouse during the baseline and treatment period. There were no differences in metabolic efficiency between any groups during the baseline period (data not shown).

[2] = Rebound food intake after a fast
Method: as §1
Mice (n = 16) were singly housed and given free access to water and regular chow for a 4-day baseline period. After this, mice were assigned to one of three groups: vehicle (n = 5), CF801 low dose (n = 5; 11 μmol⋅kg^−1 – LD), or CF801 high dose (n = 6; 22 μmol⋅kg^−1 – HD). These mice were injected intraperitoneally once a day for 4 days starting at 10:00 a.m. Following 4 days of treatment, animals were tested for rebound feeding after a fast. To do this, we removed the food from each cage 1 h before lights out (6:00 p.m.), and food was returned to the cage the following day 1 h after the last injection. Food intake was then monitored every hour for 4 h to determine the effects of CF801 on rebound feeding. Animals were then sacrificed by rapid decapitation to collect trunk blood and other tissues. Two samples were lost during sample collection, so the number of samples used to measure acylated ghrelin was reduced to n = 14.

plasma acylated ghrelin = assay: Plasma acylated ghrelin in fasted mice (ELISA)
Method: as §1
Mice (n = 16) were singly housed and given free access to water and regular chow for a 4-day baseline period. After this, mice were assigned to one of three groups: vehicle (n = 5), CF801 low dose (n = 5; 11 μmol⋅kg^−1 – LD), or CF801 high dose (n = 6; 22 μmol⋅kg^−1 – HD). […] Food intake was then monitored every hour for 4 h to determine the effects of CF801 on rebound feeding. […]
Following the treatment or recovery periods, mice were killed by rapid decapitation and plasma and tissue samples were collected. […] Plasma acylated ghrelin for all animals was measured using an ELISA kit (Millipore).

With GSAFLSPEHQRK KRRQRRR-NH2 [CF801] the “weight gain, low dose vs NIC and VEH” value (Body weight gain; 11 μmol⋅kg^−1 i.p. daily, not statistically significant) was “tended to have lower weight gain than control NIC (p = 0.092) and VEH-treated mice (p = 0.065)”, the “weight gain, high dose” value (Body weight gain; 22 μmol⋅kg^−1 i.p. daily, vs saline or non-injected, F(3,29) = 3.098, p < 0.05, partial eta^2 = 0.271) was “decrease in weight gain” and the “weight gain, low dose vs high dose” value (Body weight gain; 11 vs 22 μmol⋅kg^−1 i.p. daily, p > 0.05) was “no differences in weight gain”. The “high-fat diet intake, low dose vs NIC and VEH” value ([1]; 11 μmol⋅kg^−1 i.p. daily, 13 days, p's < 0.05) was “significantly less high-fat diet”, the “regular chow consumption, high dose” value ([1]; 22 μmol⋅kg^−1 i.p. daily, 13 days, vs every other group, F(3,28) = 5.305, p < 0.05, partial eta^2 = 0.41) was “significantly more regular chow” and the “high-fat diet intake, high dose vs NIC and VEH” value ([1]; 22 μmol⋅kg^−1 i.p. daily, 13 days, p's < 0.05) was “significantly less high-fat diet”. The “caloric intake, recovery period” value ([1]; 8-day recovery without injection, F(1,29) = 2.093, p > 0.05) was “no differences between any groups”, the “caloric intake, treatment period” value ([1]; 13-day i.p. treatment, 11 and 22 μmol⋅kg^−1, chow plus high-fat diet, F(1,29) = 0.783, p > 0.05) was “no differences between any groups” and the “high-fat diet intake, dose dependence” value ([1]; 13-day i.p. treatment, F(3,29) = 6.788, p < 0.05, partial eta^2 = 0.45) was “overall significant dose-dependent decrease in the intake of the high-fat diet”. For the same sequence, the “high-fat diet intake, high dose vs low dose” value ([1]; 22 vs 11 μmol⋅kg^−1 i.p. daily, 13 days) was “tended to consume less than animals receiving LD CF801 (p = 0.073)”, the “caloric intake at end of treatment period” value ([1]; once CF801 injections stop) was “small spike in caloric intake” and the “metabolic efficiency, low dose vs NIC and VEH” value (Metabolic efficiency; 11 μmol⋅kg^−1 i.p., p < 0.05, overall F(1,29) = 9.086, partial eta^2 = 0.522) was “significantly lower metabolic efficiencies”. The “metabolic efficiency, high dose vs NIC and VEH” value (Metabolic efficiency; 22 μmol⋅kg^−1 i.p., p < 0.05, overall F(1,29) = 9.086, partial eta^2 = 0.522) was “significantly lower metabolic efficiencies”, the “metabolic efficiency, high dose vs low dose” value (Metabolic efficiency; 22 vs 11 μmol⋅kg^−1 i.p., p > 0.05) was “no different than animals receiving LD CF801” and the “food consumed during first hour of refeeding, high dose” value ([2]; 22 μmol⋅kg^−1 i.p., after fast, F(2,24) = 2.394, p < 0.05, partial eta^2 = 0.22) was “lower amount of food consumed”. The “total chow consumed during 4-h food access, high dose vs saline” value ([2]; 22 μmol⋅kg^−1 i.p., HD vs saline, p < 0.01, Fisher LSD) was “statistically significant”, the “total chow consumed during 4-h food access, treatment effect” value ([2]; after fast, F(2,24) = 4.527, partial eta^2 = 0.411, p > 0.05 as printed) was “significant overall dose-dependent treatment effect” and the “food consumed, other time points” value ([2]; any time point of 4 h refeeding other than first hour, p > 0.05) was “No significant effects were seen at any other time point examined”. The “food intake or weight gain during first 3 days of treatment” value ([2]; i.p. once daily, 11 and 22 μmol⋅kg^−1, data not shown, p > 0.05) was “No effects”, the “plasma acylated ghrelin concentration, high dose” value (plasma acylated ghrelin; 22 μmol⋅kg^−1 i.p. once daily for 4 days, after fast, vs vehicle, p < 0.05 Fisher LSD) was “statistically significant; also recorded: reduced levels of plasma acylated ghrelin” and the “plasma acylated ghrelin concentration, dose dependence” value (plasma acylated ghrelin; i.p. once daily for 4 days, 11 and 22 μmol⋅kg^−1, F(2,24) = 2.90, p < 0.05, partial eta^2 = 0.22) was “dose-dependent decrease in plasma ghrelin concentrations”.
